SMILES strings stand for the structures.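 Five compound concentrations were applied to cells in 96-well plates for 48 hours; endpoints were derived by simple linear interpolation of the resulting dose-response curve. GI50 = concentration required for 50% inhibition of growth. TGI: concentration producing complete growth inhibition.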

Some test systems named below: EKVX NSCLC; IGROV1 ovarian; LOX IMVI melanoma; MALME-3M melanoma; SK-OV-3 ovarian; SNB-19 CNS; TK-10 renal; U251 CNS; UACC-62 melanoma; CAKI-1 renal.
Assay in all cases: DTP human tumour cell line panel, 48 h

The term TGI denotes the concentration giving total growth inhibition. Low values mean more potent growth arrest, high ones less potent growth arrest. Regarding `O=C1C(=Cc2ccc([N+](=O)[O-])o2)C(=O)N(CCc2ccccc2)S(=O)(=O)N1CCc1ccccc1`, the TGI in the test on EKVX NSCLC is above 100 µM; in the test on IGROV1 ovarian it was above 100 µM; in the test on LOX IMVI melanoma, 35 µM; in the test on MALME-3M melanoma it was 32 µM; in the test on SK-OV-3 ovarian, above 100 µM; in the test with SNB-19 CNS it was above 100 µM. Moreover, the TGI in the test on TK-10 renal is above 100 µM; in the test with U251 CNS, above 100 µM; in the test on UACC-62 melanoma, 31 µM.
As to `O=C(CSc1nnc(-c2ccc(N=Cc3ccc(Cl)cc3)cc2)o1)Nc1cccc([N+](=O)[O-])c1`, the TGI with EKVX NSCLC, in the test on LOX IMVI melanoma, in the test with MALME-3M melanoma, in the test on SK-OV-3 ovarian, in the test with SNB-19 CNS and in the test with TK-10 renal was above 100 µM in each case. Also, the total growth inhibition concentration (TGI) in the test with U251 CNS and in the test on UACC-62 melanoma was above 100 µM in each case.
For `COC(=O)CC1NC(=O)C1C(C)(OC)OC` (stereo unspecified), the TGI in the test on EKVX NSCLC, in the test on IGROV1 ovarian, with LOX IMVI melanoma, in the test on MALME-3M melanoma, in the test with SNB-19 CNS and in the test on TK-10 renal was above 100 µM in each case. Also, the TGI with U251 CNS and in the test on UACC-62 melanoma was above 100 µM throughout.
Consider `C=CC(=C)CCC(Br)C(C)(C)Cl` (stereo unspecified), for which the TGI in the test with EKVX NSCLC, in the test on IGROV1 ovarian, in the test on MALME-3M melanoma, in the test on SK-OV-3 ovarian, in the test with SNB-19 CNS and in the test on TK-10 renal was above 100 µM each time. The TGI in the test on U251 CNS and in the test with UACC-62 melanoma was above 100 µM in each case.
With `CCC1OC2C(CC=C(C)C)=C3OC(C)(O)C(C)(CC)C(=O)C3=C3OC(=O)C=C1C32` (stereo unspecified), the TGI was above 100 µM with CAKI-1 renal; above 100 µM with EKVX NSCLC; 27.3 µM in the test with LOX IMVI melanoma; above 100 µM with SK-OV-3 ovarian; above 100 µM with SNB-19 CNS; above 100 µM in the test on TK-10 renal. For the same compound, the TGI was above 100 µM in the test on U251 CNS and 83.4 µM in the test on UACC-62 melanoma.
For orientation: GI50 means the concentration at which growth is held to half of that of the control. For `CNC(=O)c1cc(Oc2cccc3nc(NC(=O)Nc4ccc(F)cc4F)ccc23)ccn1`, the GI50 was 1.61 µM in the test on CAKI-1 renal and 1.68 µM in the test on LOX IMVI melanoma. In addition, the TGI with CAKI-1 renal and in the test on LOX IMVI melanoma was above 50 µM throughout.
Regarding `Cc1cc(=O)[nH]c(NNC(C#N)c2ccc(N(C)C)cc2)n1` (stereo unspecified), the TGI in the test on CAKI-1 renal, with IGROV1 ovarian, in the test on LOX IMVI melanoma, in the test on MALME-3M melanoma, in the test with SK-OV-3 ovarian and in the test on TK-10 renal was above 100 µM each time. The TGI in the test on U251 CNS and in the test on UACC-62 melanoma was above 100 µM throughout.
With `COc1ccccc1[C@@H]1CCC2CC[C@@H](c3ccccc3OC)[N+]21Cc1ccccc1` (stereo partly specified), the TGI came to 18.8 µM in the test with CAKI-1 renal; 1.86 µM with EKVX NSCLC; 5.7 µM in the test on IGROV1 ovarian; 13.2 µM with LOX IMVI melanoma; 15.3 µM in the test with MALME-3M melanoma; 11.7 µM in the test with SK-OV-3 ovarian. For the same compound, the figures for the TGI in the test on SNB-19 CNS, with TK-10 renal and with U251 CNS were 16.5 µM, 20.3 µM and 11.2 µM, respectively.
In the case of `CCOC(=O)c1cc([N+](=O)[O-])cc([N+](=O)[O-])c1Sc1ncnc2nc[nH]c12`, the TGI in the test with CAKI-1 renal is 6.59 µM; with EKVX NSCLC, 13.1 µM; in the test on IGROV1 ovarian, 6.13 µM; in the test with LOX IMVI melanoma, 4.16 µM; with SK-OV-3 ovarian it was 23.3 µM; in the test with SNB-19 CNS it was 43 µM. The TGI with TK-10 renal stood at 9.55 µM; with U251 CNS, 24.8 µM; in the test on UACC-62 melanoma it was 21.3 µM.
Turning to `COc1ccc(Oc2nc3c(N)cc(C(F)(F)F)cc3nc2-c2ccccc2)cc1`, the total growth inhibition concentration (TGI) is 44 µM in the test on CAKI-1 renal; 28.9 µM in the test with EKVX NSCLC; 43.5 µM with IGROV1 ovarian; 53.6 µM with LOX IMVI melanoma; 43.7 µM in the test with SK-OV-3 ovarian; above 100 µM with SNB-19 CNS. For the same compound, the TGI in the test on TK-10 renal, in the test on U251 CNS and in the test with UACC-62 melanoma was above 100 µM throughout.
Consider `O=C(c1cccnc1)N1N=C(c2ccc3c(c2)OCO3)CC1(O)c1cc(F)c(Cl)cc1Cl` (stereo unspecified), for which the TGI was above 100 µM in the test on CAKI-1 renal; 64.5 µM in the test on EKVX NSCLC; 34.1 µM in the test with IGROV1 ovarian; 30.5 µM with LOX IMVI melanoma; 54.1 µM in the test on MALME-3M melanoma; above 100 µM with SK-OV-3 ovarian. Also, the TGI with SNB-19 CNS was above 100 µM; with TK-10 renal, above 100 µM; in the test on U251 CNS it was 32.9 µM.
For `CC(=O)Nc1ccc(C(=O)n2[nH]c(C)c(/C=C3\C(=O)C=Cc4ccccc43)c2=O)cc1`, the TGI in the test with CAKI-1 renal is above 100 µM; in the test with EKVX NSCLC, above 100 µM; with LOX IMVI melanoma it was above 100 µM; in the test on MALME-3M melanoma, 59.3 µM; with SNB-19 CNS, above 100 µM.
Turning to `COc1cc2nc3n(c(=O)c2cc1OC)CCCCC3`, the TGI with CAKI-1 renal, in the test on EKVX NSCLC, with IGROV1 ovarian, in the test with LOX IMVI melanoma, with MALME-3M melanoma and with SK-OV-3 ovarian was above 100 µM throughout. For the same compound, the total growth inhibition concentration (TGI) in the test with TK-10 renal, in the test with U251 CNS and in the test on UACC-62 melanoma was above 100 µM throughout.
As for `COc1ccc(C2NC3=C(CCCC3)N2)cc1`, the TGI in the test on IGROV1 ovarian, in the test on LOX IMVI melanoma, with MALME-3M melanoma, in the test with SK-OV-3 ovarian, in the test with TK-10 renal and in the test with U251 CNS was above 100 µM in each case.
Regarding `Brc1ccc(C[N+]23CN4CN(CN(C4)C2)C3)cc1`, the TGI was above 100 µM with EKVX NSCLC; above 100 µM with IGROV1 ovarian; 48 µM with LOX IMVI melanoma; 71.5 µM with MALME-3M melanoma; above 100 µM in the test on SK-OV-3 ovarian; above 100 µM with SNB-19 CNS. Further, the concentration for total growth inhibition (TGI) is above 100 µM in the test on TK-10 renal, above 100 µM with U251 CNS and 30.5 µM in the test on UACC-62 melanoma.
`COc1cc(CC(=O)c2cc3c(cc2-c2ccccc2)OCO3)cc(OC)c1OC`: the TGI with EKVX NSCLC, in the test on IGROV1 ovarian, in the test with LOX IMVI melanoma, in the test with MALME-3M melanoma, in the test with SK-OV-3 ovarian and with SNB-19 CNS was above 100 µM in each case. The TGI in the test on TK-10 renal and in the test with U251 CNS was above 100 µM in each case.

For the origin of these results see PubChem BioAssay (NCI).
